“And” between values parts separate entries of the source, which are not always exact repeats. Equal entries are not always repeated. Where two headings read alike, the source gives them in different places.
How the values were obtained:
[1] = biological target: T1, Aβ depositions in human CAA brain sections (Homo sapiens, UniProt P05067); assay: In vitro autoradiography of human CAA brain sections; type: binding; settings: for Labeling of Aβ depositions in brain sections from another patient with CAA: patient with CAA (person)
T1 construct: consistent with the immunohistochemical staining pattern observed in the same brain sections with anti-Aβ(1–40) antibody; from tissue; host or cells: post-mortem human brain, autopsy-confirmed CAA cases
Method: (§1) Six micrometer thick serial human brain sections of paraffin-embedded blocks were used for autoradiography. To completely deparaffinize the sections, they were incubated in xylene for 30 min two times and in 100% EtOH for 1 min two times. Subsequently, they were subjected to 1-min incubation in 90% EtOH and 1-min incubation in 70% EtOH, followed by a 5-min wash in water. Each slide was incubated with a 50% EtOH solution of [^99mTc]SB2A or [^99mTc]BT2B (370 kBq/mL) at room temperature for 1 h. […] The sections were washed in 50% EtOH for 3 min two times and exposed to a BAS imaging plate (Fuji Film, Tokyo, Japan) for 2 h. Autoradiographic images were obtained using a BAS5000 scanner system (Fuji Film). After autoradiographic examination, the same sections were immunostained by an antibody against Aβ(1–40) to confirm the presence of Aβ depositions. For immunohistochemical staining of Aβ(1–40), the sections were autoclaved for 15 min in 0.01 M citric acid buffer (pH 6.0) to activate the antigen. After three 5-min incubations in PBS-Tween 20 (PBST), they were incubated with anti-Aβ(1–40) primary antibody (BA27; Wako, Osaka, Japan) at room temperature overnight. Subsequently, they were incubated in PBST for 5 min three times, and incubated with biotinylated goat anti-mouse IgG (Wako) at room temperature for 3 h. After three 5-min incubations in PBST, the sections were incubated with Streptavidin-Peroxidase complex at room temperature for 30 min. After three 5-min incubations in PBST, they were incubated with diaminobenzidine (Merck, Hesse, Germany) as a chromogen for 5 min. After washing with water, the sections were observed under a microscope (BIOREVO BZ-9000; Keyence Corp., Osaka, Japan).
as §1, with “In vitro autoradiography of human CAA brain sections. Postmortem brain tissues from autopsy-confirmed cases of CAA (person, and person) and a control (person) were obtained from the Graduate School of Medicine, Kyoto University, National Cerebral and Cardiovascular Center, and BioChain Institute Inc. (California, USA), respectively. Experiments were performed according to the regulations of the ethics committee of Kyoto University. Six” for “Six”, “serial” for “serial human brain”, “Aβ(1-40)” for “Aβ(1–40)”, “Aβ(1-40),” for “Aβ(1–40),”, “anti-Aβ(1-40)” for “anti-Aβ(1–40)”, “After three 5-min incubations in PBST, the sections were incubated with Streptavidin-Peroxidase complex at room temperature for 30 min. After three 5-min incubations in PBST, they were incubated with diaminobenzidine (Merck, Hesse, Germany) as a chromogen for 5 min. After washing with water, the sections were observed under a microscope (BIOREVO BZ-9000; Keyence Corp., Osaka, Japan).” left out

[2] = normal mice, i.v., mean (SD), 5 animals, cited from earlier work
[3] = biological target: T2, CAA in Tg2576 mice (Homo sapiens, UniProt P05067); assay: SPECT/CT imaging in Tg2576 and wild-type mice; type: in vivo; settings: 30 min postinjection
T2 construct: Aβ(1–40) aggregates, the predominant amyloid found in CAA; tissue Taconic Farms, Inc. (New York, USA); host or cells: brain of living female Tg2576 transgenic mice
Method: SPECT/CT imaging. Tg2576 transgenic mice (female, 27 or 30 months old) and wild-type mice (female, 27 or 30 months old) were used as the Alzheimer’s model and age-matched control, respectively. A saline solution (200 μL) of [^99mTc]SB2A (29.6-55.5 MBq) containing EtOH (40 μL) was injected directly into the tail vein. At 30 or 120 min postinjection, SPECT and CT images with the brain region as the ﬁeld of view were collected using the U-SPECT-II/CT system (MILabs, Utrecht, Netherlands) with 0.6-mm pinhole collimators (SPECT conditions, 30 min × 2 frames; CT conditions, accurate full angle mode in 65 kV/615 µA). The mouse was maintained under isoflurane anesthesia, while SPECT and then CT image data were collected. SPECT images were reconstructed by the OSEM method (16 subsets, 6 iterations) with a 0.4-mm Gaussian ﬁlter.

T1 sequence (P05067 672-711 limits assumed): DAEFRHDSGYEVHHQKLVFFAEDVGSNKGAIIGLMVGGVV
T2 sequence (P05067 672-711 limits assumed): as above

| SMILES | Blocking of labeling of Aβ depositions with excess nonradioactive PIB ([1]; adjacent CAA brain section, PIB 1.0 mM) | Accumulation of radioactivity in control brain sections (autoradiography) ([1]; brain section from a healthy control (person)) | Labeling of Aβ depositions in CAA brain sections (autoradiography) ([1]; brain section from a patient with CAA (person), 370 kBq/mL, 1 h) | Labeling of Aβ depositions in brain sections from another patient with CAA [1] | Biodistribution of radioactivity, Blood ([2]; 2 min after injection) | Biodistribution of radioactivity, Brain ([2]; 2 min after injection) | Biodistribution of radioactivity, Blood ([2]; 10 min after injection) | Biodistribution of radioactivity, Brain ([2]; 10 min after injection) | Biodistribution of radioactivity, Blood ([2]; 30 min after injection) | Biodistribution of radioactivity, Brain ([2]; 30 min after injection) | Biodistribution of radioactivity, Blood ([2]; 60 min after injection) | Biodistribution of radioactivity, Brain ([2]; 60 min after injection) | Distribution in brains of Tg2576 versus wild-type mice (in vivo SPECT/CT) [3] |
| --- | --- | --- | --- | --- | --- | --- | --- | --- | --- | --- | --- | --- | --- |
| CN(C)c1ccc(/C=C/c2ccc(C3=N[O][99Tc-]4(=[O])([NH]3)[NH2+]C(c3ccc(/C=C/c5ccc(N(C)C)cc5)cc3)=N[O]4)cc2)cc1 (single isomer, unassigned) [[^99mTc]SB2A] | blocked to a large extent | almost no accumulation of radioactivity | intensively labeled Aβ depositions | intensively labeled Aβ depositions | 14.28 (1.90) % injected dose per gram | 0.28 % injected dose per gram and 0.28 (0.03) % injected dose per gram | 7.50 (0.51) % injected dose per gram | 0.17 (0.02) % injected dose per gram | 5.13 % injected dose per gram and 5.13 (0.57) % injected dose per gram | 0.12 (0.01) % injected dose per gram | 4.17 (0.24) % injected dose per gram | 0.11 (0.01) % injected dose per gram | not differentially distributed |
| CN(C)c1ccc(-c2nc3ccc(C4=N[O][99Tc-]5(=[O])([NH]4)[NH2+]C(c4ccc6nc(-c7ccc(N(C)C)cc7)sc6c4)=N[O]5)cc3s2)cc1 [[^99mTc]BT2B] |  |  |  | intensively labeled Aβ depositions |  |  |  |  |  |  |  |  |  |

From PMC4867616, “Imaging of Cerebral Amyloid Angiopathy with Bivalent ^99mTc-Hydroxamamide Complexes” (Scientific Reports, 2016)
